Laboratory results as given in the SangsterLogP compilation.

Test: method code SF-HPLC, from DOI: 10.1016/j.ejmech.2006.12.027, PMID: 17306423

Row | Compound | logP
1 | COc1cc(C2=[N+]([O-])C(C)(C)C(C)(C)N2O)ccc1O | 1.14
2 | COc1ccc(C2=[N+]([O-])C(C)(C)C(C)(C)N2O)cc1 | 1.62
3 | CC1(C)N(O)C(c2cccnc2)=[N+]([O-])C1(C)C | 0.51
4 | COc1ccc(C2=[N+]([O-])C(C)(C)C(C)(C)N2O)c(OC)c1 | 0.77
5 | CC1(C)N(O)C(c2ccc3c(c2)OCO3)=[N+]([O-])C1(C)C | 1.51
6 | CC1(C)N(O)C(c2ccc(Cl)cc2Cl)=[N+]([O-])C1(C)C | 1.93
7 | CC1(C)N(O)C(c2ccc([N+](=O)[O-])cc2)=[N+]([O-])C1(C)C | 1.68
8 | CC1(C)N(O)C(c2cccc([N+](=O)[O-])c2)=[N+]([O-])C1(C)C | 1.64
9 | CC1(C)N(O)C(c2ccc(OCC(=O)O)cc2)=[N+]([O-])C1(C)C | -0.52
10 | CC1(C)N(O)C(c2ccccc2[N+](=O)[O-])=[N+]([O-])C1(C)C | 0.91
11 | CC1(C)N(O)C(c2ccco2)=[N+]([O-])C1(C)C | 0.62
12 | CN(C)c1ccc(C2=[N+]([O-])C(C)(C)C(C)(C)N2O)cc1 | 2.02
13 | COc1ccc(C2=[N+]([O-])C(C)(C)C(C)(C)N2O)cc1OC | 1.15
14 | COc1ccc(C2=[N+]([O-])C(C)(C)C(C)(C)N2O)cc1O | 0.92

Next, values leading:

Row | logP | Compound
15 | 0.82 | CC1(C)N(O)C(c2ccccc2F)=[N+]([O-])C1(C)C
16 | 0.62 | CC1(C)N(O)C(c2ccc(O)cc2)=[N+]([O-])C1(C)C
17 | 1.37 | CC1(C)N(O)C(c2ccccc2)=[N+]([O-])C1(C)C
18 | 1.14 | CC1(C)N(O)C(c2cccc(O)c2)=[N+]([O-])C1(C)C
19 | 2.33 | CC1(C)N(O)C(c2ccc(Cl)cc2)=[N+]([O-])C1(C)C
20 | 2.46 | CC1(C)N(O)C(c2ccc(Br)cc2)=[N+]([O-])C1(C)C
21 | 1.17 | CC1(C)N(O)C(c2ccccc2O)=[N+]([O-])C1(C)C
22 | 1.9 | Cc1ccc(C2=[N+]([O-])C(C)(C)C(C)(C)N2O)cc1
